According to US10294202B2, “Pyrrolidinones as herbicides” (FMC Corporation, priority 2013, dated 2019):

Tests used:
[1] = system: barnyardgrass; test: Test A pre-/postemergence herbicide test; assay type: in vivo, Echinochloa crus-galli
Summary of the method: (§1)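 Planted in loam–sand blend; treated the same day preemergence by directed soil spray, while separately grown plants at one- to two-leaf stage got postemergence spray. Compared visually with untreated controls after approximately 10 days; 100 means complete control.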

[2] = system: giant foxtail; test: Test A pre-/postemergence herbicide test; assay type: in vivo, Setaria faberii
Summary of the method: as §1

[3] = system: pigweed; test: Test A pre-/postemergence herbicide test; assay type: in vivo, Amaranthus retroflexus
Summary of the method: as §1

[4] = system: corn; test: Test A pre-/postemergence herbicide test; assay type: in vivo, Zea mays
Summary of the method: as §1

[5] = system: rice; test: Test B flooded paddy test; assay type: in vivo, Oryza sativa; settings: Flood, scale of 0 to 100 where 0 is no effect and 100 is complete control
Summary of the method: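 Treatment was made at the 2-leaf stage by dosing the standing floodwater, kept 3 cm above soil level for the whole test. Greenhouse exposure lasted 13 to 15 days. Response is a visual percent rating relative to controls, where a dash indicates no test result.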

[6] = system: blackgrass; test: Test C pre-/postemergence herbicide test; assay type: in vivo, Alopecurus myosuroides; settings: for Blackgrass plant response rating: scale 0 to 100, 0 is no effect and 100 is complete control
Summary of the method: (§2)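 Test compounds, formulated in a surfactant-containing non-phytotoxic solvent blend, are applied to seeded loam/sand soil (preemergence) and to young plants at the 1- to 4-leaf stage in peat-based medium (postemergence). Plants stay 13 to 15 days under greenhouse conditions, then are scored visually relative to controls, 0 = no effect, 100 = complete control.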

[7] = system: foxtail, giant; test: Test C pre-/postemergence herbicide test; assay type: in vivo, Setaria faberii
Summary of the method: as §2

[8] = system: johnsongrass; test: Test C pre-/postemergence herbicide test; assay type: in vivo, Sorghum halepense
Summary of the method: as §2

[9] = system: nutsedge, yellow; test: Test C pre-/postemergence herbicide test; assay type: in vivo, Cyperus esculentus
Summary of the method: as §2

[10] = system: oilseed rape; test: Test C pre-/postemergence herbicide test; assay type: in vivo, Brassica napus
Summary of the method: as §2

[11] = system: velvetleaf; test: Test C pre-/postemergence herbicide test; assay type: in vivo, Abutilon theophrasti
Summary of the method: as §2

[12] = 125 g ai/ha, visual rating, 0 to 100 scale, 0 no effect, 100 complete control, approximately 10 days, preemergence
[13] = Postemergence, 125 g ai/ha, 0 to 100 scale, 0 no effect, 100 complete control
[14] = Postemergence, 500 g ai/ha, 0 to 100 scale (0 no effect, 100 complete control)
[15] = preemergence, 500 g ai/ha, 0 to 100 scale
[16] = Postemergence, 31 g ai/ha, scale 0 to 100 (0 no effect, 100 complete control)
[17] = Postemergence, 62 g ai/ha, scale 0 (no effect) to 100 (complete control)
[18] = Postemergence, 125 g ai/ha, scale 0 to 100 (0 no effect, 100 complete control)
[19] = Postemergence, 250 g ai/ha, scale 0 to 100 (0 no effect, 100 complete control)
[20] = Preemergence, 62 g ai/ha, scale 0 to 100
[21] = Preemergence, 125 g ai/ha, scale 0 to 100 (0 no effect, 100 complete control)
[22] = Preemergence, 31 g ai/ha, scale 0 to 100, 0 is no effect and 100 is complete control
[23] = Postemergence, 125 g ai/ha, 0 to 100 scale, 0 is no effect, 100 is complete control
[24] = Preemergence, 125 g ai/ha, 0 to 100 scale where 0 is no effect and 100 is complete control
[25] = preemergence, 500 g ai/ha, 0 to 100 scale, 0 is no effect and 100 is complete control
[26] = Preemergence, 62 g ai/ha, scale 0 to 100 (0 no effect, 100 complete control)

Structure (SMILES): O=C1NCC(c2ccc(F)cc2)C1C(=O)Nc1cccc(F)c1F (racemic) [Compound 119]
- Plant response rating, Barnyardgrass [1, 12]: 90
- Plant response rating, Barnyardgrass [1, 13]: 90
- Plant response rating, Barnyardgrass [1, 14]: 90
- Plant response rating, Barnyardgrass ([1]; preemergence, 500 g ai/ha, 0 to 100 scale (0 no effect, 100 complete control)): 90
- Plant response rating, Foxtail, Giant [2, 12]: 90
- Plant response rating, Foxtail, Giant [2, 13]: 90
- Foxtail, Giant plant response rating (0 to 100 scale, 0 is no effect, 100 is complete control) ([2]; Postemergence, 500 g ai/ha): 90
- Plant response rating, Foxtail, Giant [2, 15]: 90
- Plant response rating, Pigweed [3, 12]: 30
- Plant response rating, Pigweed [3, 13]: 30
- Pigweed plant response rating (0 to 100 scale, 0 is no effect, 100 is complete control) ([3]; Postemergence, 500 g ai/ha): 30
- Plant response rating, Pigweed [3, 15]: 40
- Plant response rating, Corn [4, 13]: 30
- Plant response rating, Corn [4, 14]: 70
- Plant response rating, Rice ([5]; 500 g ai/ha): 10
- Plant response rating, Blackgrass [6, 16]: 0
- Plant response rating, Blackgrass [6, 17]: 0
- Plant response rating, Blackgrass [6, 18]: 0
- Plant response rating, Blackgrass [6, 19]: 0
- Blackgrass plant response rating ([6]; Preemergence, 31 g ai/ha): 0
- Plant response rating, Blackgrass [6, 20]: 70
- Plant response rating, Blackgrass [6, 21]: 80
- Plant response rating (scale of 0 to 100), Blackgrass ([6]; Preemergence, 250 g ai/ha): 85
- Plant response rating, Foxtail, Giant [7, 16]: 10
- Plant response rating, Foxtail, Giant [7, 17]: 25
- Plant response rating, Foxtail, Giant [7, 18]: 85
- Plant response rating, Foxtail, Giant [7, 19]: 90
- Foxtail, Giant plant response rating [7, 22]: 90
- Plant response rating, Foxtail, Giant [7, 20]: 90
- Plant response rating, Foxtail, Giant [7, 21]: 98
- Plant response rating (scale of 0 to 100), Foxtail, Giant ([7]; Preemergence, 250 g ai/ha): 98
- Plant response rating, Johnsongrass [8, 16]: 0
- Plant response rating, Johnsongrass [8, 17]: 0
- Plant response rating, Johnsongrass [8, 18]: 0
- Plant response rating, Johnsongrass [8, 19]: 5
- Johnsongrass plant response rating [8, 22]: 0
- Plant response rating, Johnsongrass [8, 20]: 0
- Plant response rating, Johnsongrass [8, 21]: 30
- Plant response rating (scale of 0 to 100), Johnsongrass ([8]; Preemergence, 250 g ai/ha): 70
- Plant response rating, Nutsedge, Yellow [9, 16]: 0
- Plant response rating, Nutsedge, Yellow [9, 17]: 0
- Plant response rating, Nutsedge, Yellow [9, 18]: 0
- Plant response rating, Nutsedge, Yellow [9, 19]: 0
- Nutsedge, Yellow plant response rating [9, 22]: 0
- Plant response rating, Nutsedge, Yellow [9, 20]: 0
- Plant response rating, Nutsedge, Yellow [9, 21]: 0
- Plant response rating (scale of 0 to 100), Nutsedge, Yellow ([9]; Preemergence, 250 g ai/ha): 0
- Plant response rating, Oilseed Rape [10, 16]: 0
- Plant response rating, Oilseed Rape [10, 17]: 0
- Plant response rating, Oilseed Rape [10, 18]: 0
- Plant response rating, Oilseed Rape [10, 19]: 5
- Oilseed Rape plant response rating [10, 22]: 0
- Plant response rating, Oilseed Rape [10, 20]: 5
- Plant response rating, Oilseed Rape [10, 21]: 80
- Plant response rating (scale of 0 to 100), Oilseed Rape ([10]; Preemergence, 250 g ai/ha): 80
- Plant response rating, Velvetleaf [11, 16]: 0
- Plant response rating, Velvetleaf [11, 17]: 0
- Plant response rating, Velvetleaf [11, 18]: 15
- Plant response rating, Velvetleaf [11, 19]: 20
- Velvetleaf plant response rating [11, 22]: 0
- Plant response rating, Velvetleaf [11, 20]: 15
- Plant response rating, Velvetleaf [11, 21]: 40
- Plant response rating (scale of 0 to 100), Velvetleaf ([11]; Preemergence, 250 g ai/ha): 50

Structure (SMILES): O=C1NCC(c2ccc(C(F)(F)F)c(F)c2)C1C(=O)Nc1ccccc1F (racemic) [Compound 246]
- Plant response rating, Barnyardgrass [1, 23]: 70
- Plant response rating, Barnyardgrass [1, 14]: 70
- Plant response rating, Barnyardgrass [1, 24]: 80
- Plant response rating, Barnyardgrass [1, 25]: 90
- Plant response rating, Foxtail, Giant [2, 23]: 40
- Plant response rating, Foxtail, Giant [2, 14]: 80
- Plant response rating, Foxtail, Giant [2, 24]: 80
- Plant response rating, Foxtail, Giant [2, 25]: 90
- Plant response rating, Pigweed [3, 23]: 0
- Plant response rating, Pigweed [3, 14]: 0
- Plant response rating, Pigweed [3, 24]: 0
- Plant response rating, Pigweed [3, 25]: 0
- Plant response rating, Corn [4, 23]: 20
- Plant response rating, Corn [4, 14]: 30
- Plant response rating, Corn [4, 24]: 0
- Plant response rating, Corn [4, 25]: 0
- Plant response rating, Rice ([5]; 1000 g ai/ha): 20
- Blackgrass plant response rating ([6]; Preemergence, 31 g ai/ha): 0
- Plant response rating, Blackgrass [6, 20]: 0
- Plant response rating, Blackgrass [6, 21]: 5
- Plant response rating (scale of 0 to 100), Blackgrass ([6]; Preemergence, 250 g ai/ha): 70
- Foxtail, Giant plant response rating [7, 22]: 85
- Foxtail, Giant plant response rating [7, 26]: 90
- Plant response rating, Foxtail, Giant [7, 21]: 95
- Plant response rating (scale of 0 to 100), Foxtail, Giant ([7]; Preemergence, 250 g ai/ha): 95
- Johnsongrass plant response rating [8, 22]: 0
- Johnsongrass plant response rating [8, 26]: 20
- Plant response rating, Johnsongrass [8, 21]: 0
- Plant response rating (scale of 0 to 100), Johnsongrass ([8]; Preemergence, 250 g ai/ha): 5
- Nutsedge, Yellow plant response rating [9, 22]: 85
- Nutsedge, Yellow plant response rating [9, 26]: 100
- Plant response rating, Nutsedge, Yellow [9, 21]: 100
- Plant response rating (scale of 0 to 100), Nutsedge, Yellow ([9]; Preemergence, 250 g ai/ha): 0
- Oilseed Rape plant response rating [10, 22]: 0
- Oilseed Rape plant response rating [10, 26]: 30
- Plant response rating, Oilseed Rape [10, 21]: 0
- Plant response rating (scale of 0 to 100), Oilseed Rape ([10]; Preemergence, 250 g ai/ha): 30
- Velvetleaf plant response rating [11, 22]: 0
- Velvetleaf plant response rating [11, 26]: 0
- Plant response rating, Velvetleaf [11, 21]: 0
- Plant response rating (scale of 0 to 100), Velvetleaf ([11]; Preemergence, 250 g ai/ha): 0
